Measurements published in paper PMC7607875, “Enhancing the antibacterial activity of antimicrobial peptide PMAP-37(F34-R) by cholesterol modification” (BMC Veterinary Research, 2020).
Values after ≈ are worked out from the molar mass of the structure shown. Marks after values point to notes of the source that are not given here. Residues, ends and D or L forms follow the SMILES beside them. No end group written: not given here. *: point of attachment. Cholesteryloxycarbonyl = CC(C)CCC[C@@H](C)[C@H]1CC[C@H]2[C@@H]3CC=C4C[C@@H](OC(=O)*)CC[C@]4(C)[C@H]3CC[C@]12C

Tests used:
[1] = tested on: L. monocytogenes CICC21634; assay: MIC assay, microdilution method; type: cell-based
Protocol: (§1) The MIC values of Chol-37(F34-R) were determined using the microdilution method of the Clinical and Laboratory Standards Institute. Antibacterial intensity was tested in MHB against S. aureus ATCC25923, L. monocytogenes CICC21634, S. typhimurium SL1344, and P. aeruginosa GIM1.551. The tested strains were cultured for 12 h at 37 °C. Then, the bacterial inoculum concentration was adjusted to 1 × 10^6 CFU/mL. Twofold serial dilutions covering different concentrations from 0.0039 to 256 μg/mL for each peptide were added to media containing cultures of the tested strains in 96-well plates, which were incubated at 37 °C for 18 h. The MIC values were determined by evaluating the OD600nm of the cultures.

P. aeruginosa GIM1.551 [2] = assay: MIC assay, microdilution method; type: cell-based
Protocol: as §1

S. aureus ATCC25923 [3] = assay: MIC assay, microdilution method; type: cell-based
Protocol: as §1

NIH 3 T3 cells = assay: Cytotoxicity assay (MTT); details: 24 h, at a concentration of 1280 μg/mL, n = 5
Protocol: NIH 3 T3 cells were seeded in a 96-well with a density of 1× 10^4 cells per well and incubated in 37 °C for 24 h. Afterward, the cell medium was replaced by fresh DMEM containing various concentrations of peptides (2.5–1280 μg/mL). After 24 h incubation, 20 μL MTT agent (5 mg/mL) was added to each well and incubated for 4 h. Then, the supernatant of each well was replaced with 150 μL DMSO. The absorbance was measured by a microplate reader (FlexStation III) at 570 nm.

mouse erythrocytes = assay: Hemolytic assay; details: at 1280 μg/mL, 1 h, OD570nm, n = 5
Protocol: Mouse erythrocytes were diluted to a final suspension concentration of 8% (v/v). Then, 100 μL erythrocyte suspension was incubated with 100 μL peptides at different concentrations ranging from 2.5 to 1280 μg/mL. PBS and 0.2% Triton X-100 were used as negative and positive controls, respectively. After 1 h of incubation, the tested samples were centrifuged for 5 min at 1000 g. Lastly, the absorbance of the supernatant of tested samples was measured at 570 nm. The percentage of hemolytic was obtained using the following formula: Hemolysis rate = [OD570nm (peptides) − OD570nm (PBS)]/[OD570nm (Triton X − 100) − OD570nm (PBS)] × 100 % .

P. aeruginosa GIM1.551 [4] = type: cell-based; details: GIM1.551, 12 h
Protocol: as §1
(§2) The effects of salt ion and serum on the antibacterial activities of Chol-37(F34-R) were investigated by MIC assay. S. aureus ATCC25923 and P. aeruginosa GIM1.551 were used as the tested strains. The MIC values were determined at recommended doses of NaCl (8.766 g/L), CaCl2 (0.039 g/L), and fetal bovine serum (20%).
(§3) The effects of salt ion and serum on antibacterial activities of PMAP-37(F34-R)-C were investigated by MIC assay. a, The control MIC values were determined in the absence of physiological salts and serum. b, c, and d, The final concentrations of NaCl, CaCl2, and serum were 8.766 g/L, 0.039 g/L, and 20% (v/v), respectively.

S. aureus ATCC25923 [5] = type: cell-based; details: ATCC25923, 12 h
Protocol: as §1, §2, §3

P. aeruginosa GIM1.551 [6] = assay: P. aeruginosa GIM1.551-infected mouse abscess model; type: in vivo; details: P. aeruginosa GIM1.551 model; 10 μL of 1 μg/μL once per day for 3 days, day 3; n = 5
Text: (§4) The abscess model of mouse was built against S. aureus ATCC25923 or P. aeruginosa GIM1.551 as previously described with minor modifications. Twelve groups of 60 mice (5 mice per group) were randomly divided into PMAP-37, PMAP-37(F34-R), Chol-37(F34-R), ampicillin sodium (against S. aureus ATCC25923-infected mouse abscess model), benzylpenicillin potassium (against P. aeruginosa GIM1.551-infected mouse abscess model), PBS, and blank groups. The fur on the back of each mouse was shaved. Bacterial suspensions (1 × 10^8 CFU/mL, 50 μL) were injected into the right side of the dorsum underneath the thin skeletal muscle. After 1 h of inoculation, the infected areas were directly injected with PMAP-37, (10 μL, 1 μg/μL), PMAP-37(F34-R) (10 μL, 1 μg/μL), Chol-37(F34-R) (10 μL, 1 μg/μL), antibiotic (ampicillin sodium 10 μL, 1 μg/μL or benzylpenicillin potassium 10 μL, 1 μg/μL), or PBS (10 μL). The treatment program was conducted once per day for 3 days. Mice in the blank group were not challenged and treated. Three days after treatment, mice were euthanized with 120 mg/kg i.p. sodium pentobarbital, and their skin abscesses were harvested and homogenized as described above to assess the bacterial burden.

P. aeruginosa GIM1.551 [7] = assay: P. aeruginosa GIM1.551-infected mouse knife injury model; type: in vivo; details: topical 10 μL of 1 μg/μL once per day for 7 days, day 7
Protocol: The P. aeruginosa strain GIM1.551 was used to build knife wound model of mouse as described elsewhere with minor modifications. A total of 30 mice were randomly divided into six groups. Briefly, the fur on the back of each mouse was removed by shaving. A 1.5 cm linear knife wound was made on the back of each mouse and infected by direct seeding with bacterial suspensions (1 × 10^8 CFU/mL, 50 μL). One day postinfection, the wounds were administered with PMAP-37 (10 μL, 1 μg/μL), PMAP-37(F34-R) (10 μL, 1 μg/μL), Chol-37(F34-R) (10 μL, 1 μg/μL), ampicillin sodium (10 μL, 1 μg/μL), or PBS (10 μL), and the treatment program was performed once per day for 7 days. The mice with no infection and treatment were used as blank control. The wounds of mice were wrapped in gauze bandages that were changed every day. Seven days after treatment, mice were euthanized with 120 mg/kg intraperitoneal (i.p.) sodium pentobarbital and their wound tissues were collected. The wound tissues were homogenized with a basic homogenizer. Following a 10-fold serial dilution in PBS, the homogenates were spread on TSB agar plates. The bacterial burden was determined after incubation at 37 °C for 18 h.

S. aureus ATCC25923 [8] = assay: S. aureus ATCC25923-infected mouse abscess model; type: in vivo; details: 10 μL of 1 μg/μL once per day for 3 days, day 3, n = 5
Text: as §4

S. aureus ATCC25923 [9] = assay: S. aureus ATCC25923-infected mouse peritonitis model; type: in vivo; details: i.p. 20 μL of 1 μg/μL once per day for 3 days
Protocol: The dissemination of S. aureus ATCC25923 to target organs was assessed in the peritonitis model. The assessment was performed on the basis of the method described previously with minor modifications. Six groups of 60 mice (10 mice per group) were randomly divided into PMAP-37, PMAP-37(F34-R), Chol-37(F34-R), ampicillin sodium, PBS, and blanks group. Bacterial suspension (1 × 10^8 CFU/mL, 100 μL) was intraperitoneally injected into mice. After 2 h inoculation, PMAP-37 (20 μL, 1 μg/μL), PMAP-37(F34-R) (20 μL, 1 μg/μL), Chol-37(F34-R) (20 μL, 1 μg/μL), ampicillin sodium (20 μL, 1 μg/μL), or PBS (20 μL) was intraperitoneally injected into the mice, and the treatment program was implemented once per day for 3 days. Mice in the blank group were not challenged and treated. […] Aliquots of diluted homogenized tissues were spread on LB agar, on which the bacterial burden was determined for analysis. […] Pathological changes were scored as follows: a score of 1 indicated no pathology, 2 indicated perivascular infiltrates, 3 indicated perivascular and interstitial infiltrates affecting < 20% of the section, 4 indicated perivascular and interstitial infiltrates affecting 20 to 50% of the section, and 5 indicated perivascular and interstitial infiltrates affecting > 50% of the section.

S. typhimurium SL1344 = type: cell-based; details: SL1344, 18 h
Protocol: as §1

Compound | MIC, CaCl2 (P. aeruginosa GIM1.551 [4]) [µg/mL] | MIC, Fetal bovine serum (P. aeruginosa GIM1.551 [4]) [µg/mL] | MIC, NaCl (P. aeruginosa GIM1.551 [4]) [µg/mL] | MIC, control (P. aeruginosa GIM1.551 [4]) [µg/mL] | MIC, CaCl2 (S. aureus ATCC25923 [5]) [µg/mL] | MIC, Fetal bovine serum (S. aureus ATCC25923 [5]) [µg/mL] | MIC, NaCl (S. aureus ATCC25923 [5]) [µg/mL] | MIC, control (S. aureus ATCC25923 [5]) [µg/mL] | MIC ([1]; CICC21634, 18 h) | MIC (P. aeruginosa GIM1.551 [2]; GIM1.551, 18 h) | MIC (S. aureus ATCC25923 [3]; ATCC25923, 18 h) | MIC (S. typhimurium SL1344) | further results
CC[C@H](C)[C@H](NC(=O)[C@H](CCCNC(=N)N)NC(=O)[C@H](CCC(=O)O)NC(=O)[C@@H](NC(=O)[C@H](CCCCN)NC(=O)[C@H](CCC(=O)O)NC(=O)CNC(=O)[C@H](CC(C)C)NC(=O)[C@H](CCCNC(=N)N)NC(=O)[C@H](CCCNC(=N)N)NC(=O)CNC(=O)[C@H](CCCNC(=N)N)NC(=O)[C@H](CC(=O)O)NC(=O)[C@H](CO)NC(=O)[C@H](CC(C)C)NC(=O)[C@H](Cc1ccccc1)NC(=O)[C@H](CC(=O)O)NC(=O)[C@H](CCCNC(=N)N)NC(=O)[C@H](CC(C)C)NC(=O)[C@H](CCCNC(=N)N)NC(=O)[C@H](CO)NC(=O)[C@H](CC(C)C)NC(=O)[C@H](CC(C)C)NC(=O)CNC(=O)O[C@H]1CC[C@@]2(C)C(=CC[C@H]3[C@@H]4CC[C@H]([C@H](C)CCCC(C)C)[C@@]4(C)CC[C@@H]32)C1)[C@@H](C)CC)C(=O)NCC(=O)N[C@@H](CCC(N)=O)C(=O)N[C@@H](CCCCN)C(=O)N[C@H](C(=O)N[C@@H](CCCCN)C(=O)N[C@@H](CC(=O)O)C(=O)N[C@@H](CC(C)C)C(=O)N[C@@H](CO)C(=O)N[C@@H](CCC(=O)O)C(=O)N[C@@H](CCCNC(=N)N)C(=O)N[C@@H](Cc1ccccc1)C(=O)N[C@@H](CCC(N)=O)C(=O)N[C@@H](CO)C(=O)O)[C@@H](C)CC [Chol-37(F34-R)] (Cholesteryloxycarbonyl-GLLSRLRDFLSDRGRRLGEKIERIGQKIKDLSERFQS-OH) | 0.5 (≈ 0.104 µM) | 0.5 (≈ 0.104 µM) | 0.5 (≈ 0.104 µM) | 0.5 (≈ 0.104 µM) | 0.0078 (≈ 0.00163 µM) | 0.0078 (≈ 0.00163 µM) | 0.0078 (≈ 0.00163 µM) | 0.0078 (≈ 0.00163 µM) |  |  |  |  | MIC ([1]; L. monocytogenes CICC21634, MHB, 1 × 10^6 CFU/mL, 37 °C, 18 h, OD600nm, three independent experiments performed in triplicate): 0.5** μg/mL; MIC (P. aeruginosa GIM1.551 [2]; P. aeruginosa GIM1.551, MHB, 1 × 10^6 CFU/mL, 37 °C, 18 h, OD600nm, three independent experiments performed in triplicate): 0.5** μg/mL; MIC (S. aureus ATCC25923 [3]; S. aureus ATCC25923, MHB, 1 × 10^6 CFU/mL, 37 °C, 18 h, OD600nm, three independent experiments performed in triplicate): 0.0078** μg/mL; cell survival rate (NIH 3 T3 cells): over 80%; hemolysis rate (mouse erythrocytes): less than 5%
CC1(C)S[C@@H]2[C@H](NC(=O)[C@H](N)c3ccccc3)C(=O)N2[C@H]1C(=O)O [ampicillin sodium] |  |  |  |  |  |  |  |  |  |  |  |  | bacterial load in the abscess (P. aeruginosa GIM1.551 [6]): reduced bacterial load in the abscess; wound size vs PBS group (P. aeruginosa GIM1.551 [7]): smaller wound sizes than that of the PBS group
CC1(C)S[C@@H]2[C@H](NC(=O)Cc3ccccc3)C(=O)N2[C@H]1C(=O)O [benzylpenicillin potassium] |  |  |  |  |  |  |  |  |  |  |  |  | bacterial load in the abscess (S. aureus ATCC25923 [8]): reduced bacterial load in the abscess; tissue damage of liver and spleen (histopathology) (S. aureus ATCC25923 [9]): eliminated most of the damaged tissues; bacterial load in the liver and spleen (S. aureus ATCC25923 [9]; n = 5): reduced the bacterial load
GLLSRLRDFLSDRGRRLGEKIERIGQKIKDLSEFFQS [PMAP-37] | 2 | 2 | 2 | 2 | 0.0313 | 0.0313 | 0.0313 | 0.0313 | 4 µg/mL | 2 µg/mL | 0.0313 µg/mL | 4 µg/mL | 
GLLSRLRDFLSDRGRRLGEKIERIGQKIKDLSERFQS [PMAP-37(F34-R)] | 1 | 1 | 1 | 1 | 0.0156 | 0.0156 | 0.0156 | 0.0156 | 2* μg/mL | 1* μg/mL | 0.0156* μg/mL | 1** μg/mL | 
